Where “and” joins values, the source holds several entries; their conditions need not be identical. Equal entries are not always repeated.

Common to all, as to format: cell-based
Experiment [1] addresses rat α2/β1 (Rα2/β1) Na^+,K^+pump (Rattus norvegicus, UniProt P06686). Particulars: Rα2/β1 pump IC50 versus RH-35 cell proliferation IC50.
In experiment [2] the test system is RH-35 rat liver cancer cell line. Briefly: MTT assay, inhibition of proliferation of RH-35 rat liver cancer cells. Particulars: read-out: Cell proliferation RH-35 IC50, rat RH-35 cells, 72 h, average of 3 independent experiments + SEM.
Experiment [3] has as its target rat α1/β1 (Rα1/β1) Na^+,K^+pump (Rattus norvegicus, UniProt P06685). Particulars: for Efficiency coefficient A = 100*IC50 Na,K pump/IC50 proliferation, Rα1/β1 pump: Rα1/β1 pump IC50 versus RH-35 cell proliferation IC50.

For the molecule `CNCCCNC(=O)O[C@H]1CC[C@@]2(C)[C@H](CC[C@@H]3[C@@H]2CC[C@]2(C)[C@@H](c4ccc(=O)oc4)CC[C@]32O)C1` [BF601, Bufalin-3-yl [3-(methylamino)propyl]carbamate], in experiment [1], the “Efficiency coefficient A = 100*IC50 Na,K pump/IC50 proliferation, Rα2/β1 pump” value is 0.92. Moreover, the IC50 in experiment [2] is ~30.8 µM and 30.8 µM. Also, the “Efficiency coefficient A = 100*IC50 Na,K pump/IC50 proliferation, Rα1/β1 pump” value in experiment [3] was determined as 0.35.
On to `CC12CCC(OC(=O)NCCCn3ccnc3)CC1CCC1C2CCC2(C)C(c3ccc(=O)oc3)CCC12O` (centres unmarked) [BF238, Bufalin-3-yl [3-(1h-imidazol-1-yl)propyl]carbamate], for which, in experiment [1], the “Efficiency coefficient A = 100*IC50 Na,K pump/IC50 proliferation, Rα2/β1 pump” value stood at 2.64. The IC50 in experiment [2] turned out to be 37.4 ± 3.1 µM. For the same molecule, the “Effect on Rα1/β1 pump current” value in experiment [3] (0.05 µM drug) is “hardly affected”. Further, in experiment [3] (0.50 µM drug), the “Inhibition of Rα1/β1 pump current” value is given as “more than 50%”. The “Efficiency coefficient A = 100*IC50 Na,K pump/IC50 proliferation, Rα1/β1 pump” value in experiment [3] is listed as 0.88.
As to Bufalin-3-MeON-arabinopyranoside [BAP], the “Efficiency coefficient A = 100*IC50 Na,K pump/IC50 proliferation, Rα2/β1 pump” value in experiment [1] is listed as 0.16. Moreover, in experiment [2], the IC50 was ~67.2 µM and 67.2 µM. In experiment [3], the “Efficiency coefficient A = 100*IC50 Na,K pump/IC50 proliferation, Rα1/β1 pump” value is given as 0.10.

The values above are taken from paper PMC5600443 (Biochemistry and Biophysics Reports, 2016).
